Experimental data as given in BindingDB's records for doi:10.1021/acs.jnatprod.3c01041 (National Cancer Institute, 2024).

What was measured:
Paired box protein Pax-3 [1] = target: T1, Paired box protein Pax-3 (Homo sapiens, UniProt P23760); assay: Inhibition of PAX3-FOXO1 (unknown origin) fusion protein expressed human Rh4 cells cotransfected with ALK-Luc incubated for 24 hrs by Steady-Glo luciferase assay
Paired box protein Pax-3 [2] = target: T1, Paired box protein Pax-3; assay: Inhibition of PAX3-FOXO1 (unknown origin) fusion protein expressed human Rh4 cells cotransfected with CMV-Luc incubated for 24 hrs by Steady-Glo luciferase assay

T1 sequence (P23760 whole entry, the tested form may be a part): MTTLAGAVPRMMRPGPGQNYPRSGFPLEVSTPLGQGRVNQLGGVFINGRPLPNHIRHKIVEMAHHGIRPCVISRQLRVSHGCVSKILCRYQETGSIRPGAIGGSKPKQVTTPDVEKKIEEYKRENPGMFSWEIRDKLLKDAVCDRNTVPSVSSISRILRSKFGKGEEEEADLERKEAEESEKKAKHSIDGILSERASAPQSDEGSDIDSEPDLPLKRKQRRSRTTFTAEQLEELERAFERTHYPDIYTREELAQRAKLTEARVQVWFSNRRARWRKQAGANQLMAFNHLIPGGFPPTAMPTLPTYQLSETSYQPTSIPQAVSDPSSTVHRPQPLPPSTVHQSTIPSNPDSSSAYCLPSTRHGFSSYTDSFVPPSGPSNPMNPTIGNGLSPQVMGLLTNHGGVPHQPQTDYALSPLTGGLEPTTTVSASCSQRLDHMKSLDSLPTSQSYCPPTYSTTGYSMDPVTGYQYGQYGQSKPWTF

| IC50 (Paired box protein Pax-3 [1]) [µM] | IC50 (Paired box protein Pax-3 [2]) [µM] | SMILES |
| --- | --- | --- |
| 6.4 | 11.8 | COC(=O)c1cc2c(OS(=O)(=O)CCNc3c4c(cn(C)c3=O)C(=O)C(OC)=C(C)C4=O)c(C)c(OC)c(O)c2c[n+]1C |
| 5.4 | 9.4 | COC1=C(C)C(=O)c2c(cn(C)c(=O)c2NCCS(=O)(=O)Oc2c(C)c(OC)c(O)c3c[n+](C)ccc23)C1=O |
| 5.7 | 9.8 | COC1=C(C)C(=O)c2c(cn(C)c(=O)c2NCCS(=O)(=O)Oc2c(C)c(OC)c(O)c3c[n+](C)c(C(=O)O)cc23)C1=O |
